Assay results from ChEMBL document CHEMBL1201862, “PubChem BioAssay data set” (2004).
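In this assay, cells in 96-well plates receive the compound at five concentrations for 48 hours. Endpoints are linearly interpolated between the surrounding concentrations. Here, GI50 denotes the concentration required for 50% inhibition of growth.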 Active and inactive are the calls of the source. No stated cut-off is given here; in the data, active = GI50 up to about 1.1 µM and inactive = higher.

Assays:
Assay in all cases: NCI anticancer screen, dose series, 48 h
SW-620 = tested on: SW-620
HCC 2998 = tested on: HCC 2998
OVCAR-8 = tested on: OVCAR-8
KM12 = tested on: KM12
SNB-19 = tested on: SNB-19
NCI-H522 = tested on: NCI-H522
SK-MEL-28 = tested on: SK-MEL-28
K562 = tested on: K562
HCT-15 = tested on: HCT-15
HL-60 = tested on: HL-60
SN12C = tested on: SN12C
M14 = tested on: M14
CCRF-CEM = tested on: CCRF-CEM
NCI-H460 = tested on: NCI-H460
OVCAR-5 = tested on: OVCAR-5
HCT-116 = tested on: HCT-116

| SMILES | GI50 (SW-620) | GI50 (HCC 2998) | GI50 (OVCAR-8) | GI50 (KM12) | GI50 (SNB-19) | GI50 (NCI-H522) | GI50 (SK-MEL-28) | GI50 (K562) | GI50 (HCT-15) [µM] | GI50 (HL-60) | GI50 (SN12C) | GI50 (M14) | GI50 (CCRF-CEM) | GI50 (NCI-H460) | GI50 (OVCAR-5) | GI50 (HCT-116) |
| --- | --- | --- | --- | --- | --- | --- | --- | --- | --- | --- | --- | --- | --- | --- | --- | --- |
| Oc1cc(-c2ccc3c(c2)OCO3)nc2cc3c(cc12)OCO3 | 35.8 µM (inactive) | 31.4 µM (inactive) | 25.7 µM (inactive) | 36.1 µM (inactive) | 54.3 µM (inactive) | 40.2 µM (inactive) | 37.4 µM (inactive) | 28.8 µM (inactive) | 40.3 | 24.5 µM (inactive) | 39.5 µM (inactive) | 27.9 µM (inactive) | 31.7 µM (inactive) | 40.2 µM (inactive) | – | – |
| COc1ccc(C(O)/C(=C/n2ccnc2)c2ccccc2)cc1OC (stereo not drawn) | > 100 µM (inactive) | > 100 µM (inactive) | > 100 µM (inactive) | > 100 µM (inactive) | > 100 µM (inactive) | – | > 100 µM (inactive) | > 100 µM (inactive) | > 100 | > 100 µM (inactive) | > 100 µM (inactive) | > 100 µM (inactive) | > 100 µM (inactive) | > 100 µM (inactive) | > 100 µM (inactive) | > 100 µM (inactive) |
| C=CCNC(=O)NCCCCC(NC(C)=O)C(=O)NCc1ccccc1 (stereo not drawn) | > 100 µM (inactive) | > 100 µM (inactive) | > 100 µM (inactive) | > 100 µM (inactive) | > 100 µM (inactive) | > 100 µM (inactive) | > 100 µM (inactive) | > 100 µM (inactive) | > 100 | > 100 µM (inactive) | > 100 µM (inactive) | > 100 µM (inactive) | > 100 µM (inactive) | > 100 µM (inactive) | > 100 µM (inactive) | – |
| Cc1ccc(C(=O)NCCN(C)C)c2nc3ccccc3cc12 | 0.445 µM (active) | 2.56 µM (inactive) | 0.622 µM (active) | 1.1 µM (active) | 2.36 µM (inactive) | – | 1.95 µM (inactive) | 1.4 µM (inactive) | 0.644 | 1.42 µM (inactive) | 0.809 µM (active) | 2.69 µM (inactive) | 1.54 µM (inactive) | 0.34 µM (active) | 1.94 µM (inactive) | 0.468 µM (active) |
| N#C/C(=C1\SCC(=O)N1c1ccccc1)c1nc2ccccc2[nH]1 | > 100 µM (inactive) | – | > 100 µM (inactive) | – | > 100 µM (inactive) | > 100 µM (inactive) | > 100 µM (inactive) | > 100 µM (inactive) | > 100 | > 100 µM (inactive) | > 100 µM (inactive) | > 100 µM (inactive) | > 100 µM (inactive) | > 100 µM (inactive) | > 100 µM (inactive) | > 100 µM (inactive) |
| CCN(CC)CC(C(=O)Nc1c(C)cccc1C)/C(C)=N\NC(=O)c1ccncc1 (stereo not drawn) | – | > 100 µM (inactive) | > 100 µM (inactive) | > 100 µM (inactive) | > 100 µM (inactive) | > 100 µM (inactive) | > 100 µM (inactive) | – | > 100 | – | > 100 µM (inactive) | > 100 µM (inactive) | – | > 100 µM (inactive) | > 100 µM (inactive) | > 100 µM (inactive) |
| COC(=O)N/N=C(\C(=O)Nc1cccc([N+](=O)[O-])c1)c1nc2ccc([N+](=O)[O-])cc2nc1O | 45.1 µM (inactive) | 33 µM (inactive) | 83.2 µM (inactive) | 29.4 µM (inactive) | > 100 µM (inactive) | 3.47 µM (inactive) | > 100 µM (inactive) | 11.4 µM (inactive) | – | > 100 µM (inactive) | > 100 µM (inactive) | 45.3 µM (inactive) | > 100 µM (inactive) | 57.5 µM (inactive) | > 100 µM (inactive) | 61.7 µM (inactive) |
| O=C(O)CNS(=O)(=O)c1ccc(NC(=O)CI)cc1 | 13.2 µM (inactive) | > 100 µM (inactive) | 21.1 µM (inactive) | 24.8 µM (inactive) | 58.2 µM (inactive) | 2.16 µM (inactive) | 24.4 µM (inactive) | 10.2 µM (inactive) | 17.6 | 18.2 µM (inactive) | 32.5 µM (inactive) | 18.6 µM (inactive) | 2.33 µM (inactive) | 25.7 µM (inactive) | 27.6 µM (inactive) | – |
| O=[N+]([O-])c1cnn(C2=CNc3ccccc3N=C2)c1 | – | > 100 µM (inactive) | > 100 µM (inactive) | – | > 100 µM (inactive) | – | > 100 µM (inactive) | – | > 100 | > 100 µM (inactive) | > 100 µM (inactive) | – | > 100 µM (inactive) | > 100 µM (inactive) | > 100 µM (inactive) | > 100 µM (inactive) |
| Cc1ccc2c(ccc(/C=C\c3cc(C)c4cccnc4c3O)[n+]2C)c1 | 1.66 µM (inactive) | 1.81 µM (inactive) | 0.912 µM (active) | 1.32 µM (inactive) | 6.08 µM (inactive) | 4.34 µM (inactive) | – | 0.385 µM (active) | – | 0.454 µM (active) | 2 µM (inactive) | 0.664 µM (active) | 0.796 µM (active) | 0.439 µM (active) | 22 µM (inactive) | 0.61 µM (active) |
| COC(=O)C1=C(C[S+]([O-])c2ccc([N+](=O)[O-])cc2[N+](=O)[O-])C2C=CC1C2 (stereo not drawn) | 14.4 µM (inactive) | 38.4 µM (inactive) | 30.5 µM (inactive) | 40.3 µM (inactive) | > 100 µM (inactive) | 13.8 µM (inactive) | – | 19 µM (inactive) | 15.7 | 16.2 µM (inactive) | 23.7 µM (inactive) | 42.6 µM (inactive) | 11.8 µM (inactive) | 35.9 µM (inactive) | > 100 µM (inactive) | 21.8 µM (inactive) |
| N#CC(C#N)=c1ccc(=C2NCC3CCCN23)cc1 (stereo not drawn) | > 100 µM (inactive) | > 100 µM (inactive) | > 100 µM (inactive) | > 100 µM (inactive) | > 100 µM (inactive) | > 100 µM (inactive) | – | > 100 µM (inactive) | > 100 | > 100 µM (inactive) | > 100 µM (inactive) | > 100 µM (inactive) | > 100 µM (inactive) | > 100 µM (inactive) | > 100 µM (inactive) | > 100 µM (inactive) |
| COC1O[C@@H]2COC(C)(C)O[C@@H]2C(=O)N1Nc1ccc([N+](=O)[O-])cc1 (stereo partly drawn) | 25.1 µM (inactive) | > 100 µM (inactive) | > 100 µM (inactive) | > 100 µM (inactive) | > 100 µM (inactive) | – | > 100 µM (inactive) | > 100 µM (inactive) | > 100 | > 100 µM (inactive) | > 100 µM (inactive) | > 100 µM (inactive) | > 10 µM (inactive) | > 100 µM (inactive) | > 100 µM (inactive) | > 100 µM (inactive) |
| COC(=O)[C@@]12C3=NO[C@]1(C(=O)OC)C(O[Si](C)(C)C(C)(C)C)C1OC(C)(C)OC1[C@@H]2[C@@H](OCc1ccccc1)CC3 (stereo partly drawn) | > 100 µM (inactive) | > 100 µM (inactive) | > 100 µM (inactive) | 7.73 µM (inactive) | > 100 µM (inactive) | – | > 100 µM (inactive) | 8.93 µM (inactive) | 91 | 3.11 µM (inactive) | > 100 µM (inactive) | 43.9 µM (inactive) | > 100 µM (inactive) | – | – | 8.2 µM (inactive) |
